Measured values reported in patent publication US20230138177A1 (priority 2020, published 2023).

Experiments:
DYRK1B [1] = target: T1, DYRK1B (Homo sapiens, UniProt Q9Y463, P333A); type: cell-based
T1 construct: expressed in transfected cells; host or cells: glioma cells (U87)

DYRK1B [2] = target: T2, DYRK1B (Homo sapiens, UniProt Q9Y463); type: cell-based; design: expressed in transfected cells; host or cells: glioma cells (U87)
DYRK1B [3] = target: T2, DYRK1B; type: biochemical; design: expressed in transfected cells; host or cells: HEK293T or U87 cells; immunoprecipitate used in vitro; conditions: FLAG-DYRK1B from cells treated with harmine 10 μM or CX-4945 1 μM for 8 hours
DYRK1A = type: cell-based, human
DYRK1B [4] = type: cell-based, human
VCB-CUL2 complex = type: binding
HIF2α = type: cell-based, human
GSK3β [5] = type: cell-based, human
Sequence of GSK3β (P49841 whole entry): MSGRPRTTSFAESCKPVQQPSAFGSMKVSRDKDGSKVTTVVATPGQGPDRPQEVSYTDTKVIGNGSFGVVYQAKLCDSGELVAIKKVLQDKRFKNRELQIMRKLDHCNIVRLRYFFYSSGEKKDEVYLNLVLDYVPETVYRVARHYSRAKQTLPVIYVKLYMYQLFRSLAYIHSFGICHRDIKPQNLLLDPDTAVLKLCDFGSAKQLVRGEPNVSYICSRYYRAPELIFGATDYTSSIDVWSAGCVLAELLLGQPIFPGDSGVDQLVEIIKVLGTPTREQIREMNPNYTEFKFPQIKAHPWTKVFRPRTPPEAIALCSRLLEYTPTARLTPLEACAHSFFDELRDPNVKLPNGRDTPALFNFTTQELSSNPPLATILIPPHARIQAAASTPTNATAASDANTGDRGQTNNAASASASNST

GSK3β [6] = type: biochemical, human

T2 sequence (Q9Y463 whole entry): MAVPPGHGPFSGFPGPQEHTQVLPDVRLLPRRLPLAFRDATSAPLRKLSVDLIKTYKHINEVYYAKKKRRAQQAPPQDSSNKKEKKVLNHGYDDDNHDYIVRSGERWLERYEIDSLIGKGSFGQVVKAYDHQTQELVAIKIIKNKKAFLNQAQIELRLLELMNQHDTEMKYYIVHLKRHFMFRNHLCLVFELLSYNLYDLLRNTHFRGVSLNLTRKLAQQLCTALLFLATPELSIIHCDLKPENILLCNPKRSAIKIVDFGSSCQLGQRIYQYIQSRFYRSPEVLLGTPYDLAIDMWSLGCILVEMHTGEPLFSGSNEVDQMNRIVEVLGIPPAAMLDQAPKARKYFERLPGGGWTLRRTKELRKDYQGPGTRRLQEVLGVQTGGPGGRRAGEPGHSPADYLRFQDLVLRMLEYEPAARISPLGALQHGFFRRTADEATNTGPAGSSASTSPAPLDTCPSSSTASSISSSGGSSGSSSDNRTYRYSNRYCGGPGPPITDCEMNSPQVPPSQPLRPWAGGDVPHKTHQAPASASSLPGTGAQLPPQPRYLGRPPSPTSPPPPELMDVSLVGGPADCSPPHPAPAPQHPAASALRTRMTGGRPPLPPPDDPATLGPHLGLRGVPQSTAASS
T1 sequence (Q9Y463 whole entry P333A): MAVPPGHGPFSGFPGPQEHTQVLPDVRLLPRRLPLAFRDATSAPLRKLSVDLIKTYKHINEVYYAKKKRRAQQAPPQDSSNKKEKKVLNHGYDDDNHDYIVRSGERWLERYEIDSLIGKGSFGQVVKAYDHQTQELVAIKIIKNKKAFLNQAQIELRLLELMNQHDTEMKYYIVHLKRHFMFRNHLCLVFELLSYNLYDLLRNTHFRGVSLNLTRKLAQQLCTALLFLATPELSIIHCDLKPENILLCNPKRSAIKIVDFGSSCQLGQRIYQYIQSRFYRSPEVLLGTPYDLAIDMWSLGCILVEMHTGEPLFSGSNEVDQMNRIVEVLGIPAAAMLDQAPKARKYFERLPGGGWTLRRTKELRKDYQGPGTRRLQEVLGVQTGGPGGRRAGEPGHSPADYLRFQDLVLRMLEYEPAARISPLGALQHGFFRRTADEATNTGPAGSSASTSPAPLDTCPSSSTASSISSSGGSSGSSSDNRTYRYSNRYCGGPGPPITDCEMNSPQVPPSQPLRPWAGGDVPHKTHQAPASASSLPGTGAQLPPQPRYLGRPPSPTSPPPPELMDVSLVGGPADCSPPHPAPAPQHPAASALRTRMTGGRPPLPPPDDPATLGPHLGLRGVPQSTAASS

Molecule	prolyl hydroxylation of DYRK1B-P333A (DYRK1B [1])	tyrosine auto-phosphorylation of DYRK1B-P333A (DYRK1B [1])	prolyl hydroxylation of DYRK1B (DYRK1B [2])	tyrosine autophosphorylation of DYRK1B (DYRK1B [2])	phosphorylation of the ID2-T27 substrate (DYRK1B [3])	prolyl hydroxylation of DYRK1A (DYRK1A)	tyrosine autophosphorylation of DYRK1A (DYRK1A)	prolyl hydroxylation of DYRK1B (DYRK1B [4])	tyrosine autophosphorylation of DYRK1B (DYRK1B [4])	ID2-mediated dissociation of CUL2 from VCB (VCB-CUL2 complex)	VHL-HIF2α interaction (VCB-CUL2 complex)	proline hydroxylation on HIF2-α (HIF2α)	prolyl-hydroxylation of HIF2α (HIF2α)	prolyl hydroxylation of GSK3β (GSK3β [5])	tyrosine autophosphorylation of GSK3β (GSK3β [5])	GSK3β-mediated phosphorylation of GST-c-MYC (GSK3β [6])	prolyl hydroxylation of DYRK4 (DYRK4)	tyrosine autophosphorylation of DYRK4 (DYRK4)	proline hydroxylation on DYRK1 kinase (DYRK1B [2])
COC(=O)CNC(=O)C(=O)OC [DMOG, dimethyloxalylglycine]	caused loss	caused loss	caused loss	caused loss	–	–	–	–	–	–	–	–	–	–	–	–	–	–	–
COc1ccc2c(c1)[nH]c1c(C)nccc12 [harmine]	–	–	failed to perturb	severely impairing	severely impairing	–	–	–	–	–	–	–	–	–	–	–	–	–	–
CoCl2	–	–	caused loss	caused loss	–	abolished	abolished	abolished	abolished	elicited	disrupted	complete elimination	prevented	caused loss	caused loss	abolished	caused loss	caused loss	complete elimination
